{"source": "patent US10604554B2", "about": "“Double-acylated GLP-1 derivatives” (Novo Nordisk A/S, priority 2012, dated 2020)", "key": {"[1]": {"biological_target": "T1, human GLP-1 receptor (Homo sapiens, UniProt P43220)", "T1 construct": "expressed in transfected cells; host or cells: BHK cells, clone FCW467-12A/KZ10-1 (parent line BHKTS13), further transfected with CRE luciferase", "T1 sequence (P43220 24-463)": "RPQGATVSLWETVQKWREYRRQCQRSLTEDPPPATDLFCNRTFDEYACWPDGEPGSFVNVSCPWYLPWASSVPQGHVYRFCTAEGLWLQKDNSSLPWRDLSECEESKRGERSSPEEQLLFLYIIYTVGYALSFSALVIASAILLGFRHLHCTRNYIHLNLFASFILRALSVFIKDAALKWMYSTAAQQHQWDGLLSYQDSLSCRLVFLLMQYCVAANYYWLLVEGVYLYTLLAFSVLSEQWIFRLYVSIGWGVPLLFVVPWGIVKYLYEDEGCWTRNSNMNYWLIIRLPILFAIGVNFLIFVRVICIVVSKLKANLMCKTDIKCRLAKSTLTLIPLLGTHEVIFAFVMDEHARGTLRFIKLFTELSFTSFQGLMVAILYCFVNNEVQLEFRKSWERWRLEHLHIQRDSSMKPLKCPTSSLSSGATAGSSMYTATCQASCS", "experiment": "In vitro potency (AlphaScreen cAMP, membranes)", "type": "biochemical", "experimental": "The purpose of this example is to test the activity, or potency, of the GLP-1 derivatives in vitro.\nPurified plasma membranes from a stable transfected cell line, BHK467-12A (tk-ts13), expressing the human GLP-1 receptor were stimulated with the GLP-1 analogue or derivative in question, and the potency of cAMP production was measured using the AlphaScreen™ cAMP Assay Kit from Perkin Elmer Life Sciences. The basic principle of the AlphaScreen Assay is a competition between endogenous cAMP and exogenously added biotin-cAMP. The capture of cAMP is achieved by using a specific antibody conjugated to acceptor beads.\nA stable transfected cell line and a high expressing clone were selected for screening. The cells were grown at 5% CO2 in DMEM, 5% FCS, 1% Pen/Strep (Penicillin/Streptomycin) and 0.5 mg/ml of the selection marker G418.\nCells at approximately 80% confluence were washed 2× with PBS and harvested with Versene (aqueous solution of the tetrasodium salt of ethylenediaminetetraacetic acid), centrifuged 5 min at 1000 rpm and the supernatant removed. The additional steps were all performed on ice. The cell pellet was homogenised by the Ultrathurax for 20-30 s in 10 ml of Buffer 1 (20 mM Na-HEPES, 10 mM EDTA, pH=7.4), centrifuged 15 min at 20,000 rpm and the pellet resuspended in 10 ml of Buffer 2 (20 mM Na-HEPES, 0.1 mM EDTA, pH=7.4). The suspension was homogenised for 20-30 s and centrifuged 15 min at 20,000 rpm. Suspension in Buffer 2, homogenisation and centrifugation was repeated once and the membranes were resuspended in Buffer 2. The protein concentration was determined and the membranes stored at −80° C. until use.\nThe assay was performed in flat-bottom 96-well plates (Costar cat. no:3693). The final volume per well was 50 μl.\nAlphaScreen cAMP Assay Kit from Perkin Elmer Life Sciences (cat. No: 6760625M); containing Anti-cAMP Acceptor beads (10 U/μl), Streptavidin Donor beads (10 U/μl) and Biotinylated-cAMP (133 U/μl).\nAlphaScreen Buffer, pH=7.4: 50 mM TRIS-HCl (Sigma, cat.no: T3253); 5 mM HEPES (Sigma, cat.no: H3375); 10 mM MgCl2, 6H2O (Merck, cat.no: 5833); 150 mM NaCl (Sigma, cat.no: S9625); 0.01% Tween (Merck, cat.no: 822184). The following was added to the AlphaScreen Buffer prior to use (final concentrations indicated): BSA (Sigma, cat. no. A7906): 0.1%; IBMX (Sigma, cat. no. 15879): 0.5 mM; ATP (Sigma, cat. no. A7699): 1 mM; GTP (Sigma, cat. no. G8877): 1 uM.\ncAMP standard (dilution factor in assay=5): cAMP Solution: 5 μL of a 5 mM cAMP-stock+495 μL AlphaScreen Buffer.\nMembranes were prepared from hGLP-1/BHK 467-12A cells with a concentration of 6 μg/well corresponding to 0.6 mg/ml (the amount of membranes used pr. well may vary)\n“No membranes”: Acceptor Beads (15 μg/ml final) in AlphaScreen buffer\n“6 μg/well membranes”: membranes+Acceptor Beads (15 μg/ml final) in AlphaScreen buffer\nAn aliquot (10 μl) of “No membranes” was added to the cAMP standard (per well in duplicate wells) and the positive and negative controls\nAn aliquot (10 μl) of “6 μg/well membranes” was added to GLP-1 and analogues (per well in duplicate or triplicate wells)\nPos. Control: 10 μl “no membranes”+10 μl AlphaScreen Buffer\nNeg. Control: 10 μl “no membranes”+10 μl cAMP Stock Solution (50 μM)\nAs the beads are sensitive to direct light, any handling was in the dark (as dark as possible), or in green light. All dilutions were made on ice.\n1. Make the AlphaScreen Buffer.\n2. Dissolve and dilute the GLP-1/Analogues/cAMP standard in AlphaScreen Buffer.\n3. Make the Donor Beads Solution by mixing streptavidin donor beads (2 units/well) and biotinylated cAMP (1.2 units/well) and incubate 20-30 min in the dark at room temperature\n4. Add the cAMP/GLP-1/Analogues to the plate: 10 μl per well.\n5. Prepare membrane/Acceptor Beads solution and add this to the plates: 10 μl per well.\n6. Add the Donor Beads: 30 μl per well.\n7. Wrap the plate in aluminum foil and incubate on the shaker for 3 hours (very slowly) at RT."}, "[2]": {"experiment": "Pharmacokinetic (PK) study in rat", "settings": "male, Sprague Dawley, in vivo, iv, 6 nmol/kg"}, "[3]": {"experiment": "Pharmacokinetic (PK) study in minipig", "settings": "male, Göttingen, in vivo, iv"}}, "note": "Numbered stars: 1 amine (or outer) side, 2 acyl side, 3 side chain; on linkers, the order of the positions; unused ones are H or OH. Square brackets hold non-standard residues; d marks the D form. Side chains are listed from the residue outwards. Peptide text beside a SMILES is read from it. * marks the point of attachment. Decanoyl(10-(4-HOOC-PhO)) = O=C(O)c1ccc(OCCCCCCCCCC(=O)*)cc1; γGlu = O=C(O)[C@H](CCC(=O)[*:2])N[*:1]; εLys = N[C@@H](CCCCN[*:1])C(=O)[*:2]; AEEA = NCCOCCOCC(=O)O; Aib = CC(C)(N)C(=O)O", "data": [{"smiles": "CC[C@H](C)[C@H](NC(=O)[C@H](Cc1ccccc1)NC(=O)[C@H](CCC(=O)O)NC(=O)[C@H](CCCCNC(=O)[C@@H](N)CCCCNC(=O)CC[C@H](NC(=O)CC[C@H](NC(=O)CC[C@H](NC(=O)CCCCCCCCCCCOc1ccc(C(=O)O)cc1)C(=O)O)C(=O)O)C(=O)O)NC(=O)[C@H](C)NC(=O)[C@H](C)NC(=O)[C@H](CCC(N)=O)NC(=O)CNC(=O)[C@H](CCC(=O)O)NC(=O)[C@H](CC(C)C)NC(=O)[C@H](Cc1ccc(O)cc1)NC(=O)[C@H](CO)NC(=O)[C@H](CO)NC(=O)[C@@H](NC(=O)[C@H](CC(=O)O)NC(=O)[C@H](CO)NC(=O)[C@@H](NC(=O)[C@H](Cc1ccccc1)NC(=O)[C@@H](NC(=O)CNC(=O)[C@H](CCC(=O)O)NC(=O)C(C)(C)NC(=O)[C@@H](N)Cc1c[nH]cn1)[C@@H](C)O)[C@@H](C)O)C(C)C)C(=O)N[C@@H](C)C(=O)N[C@@H](Cc1c[nH]c2ccccc12)C(=O)N[C@@H](CC(C)C)C(=O)N[C@H](C(=O)N[C@@H](CCCNC(=N)N)C(=O)NCC(=O)N[C@@H](CCCNC(=N)N)C(=O)N[C@@H](CCCCNC(=O)[C@@H](N)CCCCNC(=O)CC[C@H](NC(=O)CC[C@H](NC(=O)CC[C@H](NC(=O)CCCCCCCCCCCOc1ccc(C(=O)O)cc1)C(=O)O)C(=O)O)C(=O)O)C(=O)O)C(C)C", "note": "[Example 17, N^ε26-[(2S)-2-amino-6-[[(4S)-4-carboxy-4-[[(4S)-4-carboxy-4-[[(4S)-4-carboxy-4-[12-(4-carboxyphenoxy)dodecanoylamino]butanoyl]amino]butanoyl]amino]butanoyl]amino]hexanoyl], N^ε37-[(2S)-2-amino-6-[[(4S)-4-carboxy-4-[[(4S)-4-carboxy-4-[[(4S)-4-carboxy-4-[12-(4-carboxyphenoxy)dodecanoylamino]butanoyl]amino]butanoyl]amino]butanoyl]amino]hexanoyl]-[Aib^8,Arg^34,Lys^37]-GLP-1-(7-37)-peptide]", "values": [{"measurement": "EC50", "setting": "[1]", "result": 0.286, "unit": "nM"}, {"measurement": "half-life", "setting": "[2]", "result": 24, "unit": "h"}, {"measurement": "half-life", "setting": "[3]", "result": 71, "unit": "h"}]}, {"smiles": "CC[C@H](C)[C@H](NC(=O)[C@H](Cc1ccccc1)NC(=O)[C@H](CCC(=O)O)NC(=O)[C@H](CCCCNC(=O)[C@@H](N)CCCCNC(=O)[C@@H](N)CCCCNC(=O)CC[C@H](NC(=O)CCCCCCCCCCOc1ccc(C(=O)O)cc1)C(=O)O)NC(=O)[C@H](C)NC(=O)[C@H](C)NC(=O)[C@H](CCC(N)=O)NC(=O)CNC(=O)[C@H](CCC(=O)O)NC(=O)[C@H](CC(C)C)NC(=O)[C@H](Cc1ccc(O)cc1)NC(=O)[C@H](CO)NC(=O)[C@H](CO)NC(=O)[C@@H](NC(=O)[C@H](CC(=O)O)NC(=O)[C@H](CO)NC(=O)[C@@H](NC(=O)[C@H](Cc1ccccc1)NC(=O)[C@@H](NC(=O)CNC(=O)[C@H](CCC(=O)O)NC(=O)C(C)(C)NC(=O)[C@@H](N)Cc1c[nH]cn1)[C@@H](C)O)[C@@H](C)O)C(C)C)C(=O)N[C@@H](C)C(=O)N[C@@H](Cc1c[nH]c2ccccc12)C(=O)N[C@@H](CC(C)C)C(=O)N[C@H](C(=O)N[C@@H](CCCNC(=N)N)C(=O)NCC(=O)N[C@@H](CCCNC(=N)N)C(=O)N[C@@H](CCCCNC(=O)[C@@H](N)CCCCNC(=O)[C@@H](N)CCCCNC(=O)CC[C@H](NC(=O)CCCCCCCCCCOc1ccc(C(=O)O)cc1)C(=O)O)C(=O)O)C(C)C", "note": "[Example 20, N^ε26-[(2S)-2-amino-6-[[(2S)-2-amino-6-[[(4S)-4-carboxy-4-[11-(4-carboxyphenoxy)undecanoylamino]butanoyl]amino]hexanoyl]amino]hexanoyl], N^ε37-[(2S)-2-amino-6-[[(2S)-2-amino-6-[[(4S)-4-carboxy-4-[11-(4-carboxyphenoxy)undecanoylamino]butanoyl]amino]hexanoyl]amino]hexanoyl]-[Aib^8,Arg^34,Lys^37]-GLP-1-(7-37)-peptide]", "values": [{"measurement": "EC50", "setting": "[1]", "result": 0.071, "unit": "nM"}, {"measurement": "half-life", "setting": "[2]", "result": 14, "unit": "h"}, {"measurement": "half-life", "setting": "[3]", "result": 59, "unit": "h"}]}, {"smiles": "CC[C@H](C)[C@H](NC(=O)[C@H](Cc1ccccc1)NC(=O)[C@H](CCC(=O)O)NC(=O)[C@H](CCCCNC(=O)[C@@H](N)CCCCNC(=O)COCCOCCNC(=O)COCCOCCNC(=O)CC[C@H](NC(=O)CCCCCCCCCOc1ccc(C(=O)O)cc1)C(=O)O)NC(=O)[C@H](C)NC(=O)[C@H](C)NC(=O)[C@H](CCC(N)=O)NC(=O)[C@H](CCC(=O)O)NC(=O)[C@H](CCC(=O)O)NC(=O)[C@H](CC(C)C)NC(=O)[C@H](Cc1ccc(O)cc1)NC(=O)[C@H](CO)NC(=O)[C@H](CO)NC(=O)[C@@H](NC(=O)[C@H](CC(=O)O)NC(=O)[C@H](CO)NC(=O)[C@@H](NC(=O)[C@H](Cc1ccccc1)NC(=O)[C@@H](NC(=O)CNC(=O)[C@H](CCC(=O)O)NC(=O)C(C)(C)NC(=O)[C@@H](N)Cc1c[nH]cn1)[C@@H](C)O)[C@@H](C)O)C(C)C)C(=O)N[C@@H](C)C(=O)N[C@@H](Cc1c[nH]c2ccccc12)C(=O)N[C@@H](CC(C)C)C(=O)N[C@H](C(=O)N[C@@H](CCC(N)=O)C(=O)NCC(=O)N[C@@H](CCCNC(=N)N)C(=O)N[C@@H](CCCCNC(=O)[C@@H](N)CCCCNC(=O)COCCOCCNC(=O)COCCOCCNC(=O)CC[C@H](NC(=O)CCCCCCCCCOc1ccc(C(=O)O)cc1)C(=O)O)C(=O)O)C(C)C", "note": "[Example 18] (H-H[Aib]EGTFTSDVSSYLEEQAAK([εLys-AEEA-AEEA-γGlu-Decanoyl(10-(4-HOOC-PhO))])EFIAWLVQGRK([εLys-AEEA-AEEA-γGlu-Decanoyl(10-(4-HOOC-PhO))])-OH; N-terminus and C-terminus assumed)", "values": [{"measurement": "EC50", "setting": "[1]", "result": 0.075, "unit": "nM"}, {"measurement": "half-life", "setting": "[2]", "result": 20, "unit": "h"}, {"measurement": "half-life", "setting": "[3]", "result": 47, "unit": "h"}]}]}
